# Source: ChEMBL document CHEMBL4219030, “Progress in the discovery of small molecule modulators of the Cys-loop superfamily receptors” (Bioorg Med Chem Lett, 2017)
# pEC50, pIC50, pKi: −log10 of the molar value.
# Tests used:
# [1] = biological target: T1, GABA-A receptor; alpha-1/beta-3/gamma-2 (Homo sapiens) (UniProt P14867+P18507+P28472); assay: Positive allosteric modulation of recombinant human GABAA receptor alpha1beta3gamma2 expressed in Xenopus oocytes assessed as potentiation of GABA induced chloride current response relative to GABA; assay type: cell-based
# [2] = biological target: GABA-A receptor; alpha-2/beta-3/gamma-2 (Homo sapiens, UniProt P18507+P28472+P47869); assay: Displacement of [3H]Ro15-1788 from human GABAA receptor alpha2beta3gamma2 expressed in LTK cells […]; assay type: cell-based
# [3] = biological target: T2, GABA A receptor alpha-4/beta-3/gamma-2 (Homo sapiens, UniProt P18507+P28472+P48169); assay: Displacement of [3H][…] from human GABAA receptor alpha4beta3gamma2 expressed in LTK cells […]; assay type: cell-based
# [4] = biological target: GABA-A receptor; alpha-5/beta-3/gamma-2 (Homo sapiens, UniProt P18507+P28472+P31644); assay: Displacement of [3H]Ro15-1788 from human GABAA receptor alpha5beta3gamma2 expressed in LTK cells […]; assay type: cell-based
# [5] = biological target: T3, GABA-A receptor; alpha-2/beta-3/gamma-2 (Homo sapiens) (UniProt P18507+P28472+P47869); assay: Positive allosteric modulation of recombinant human GABAA receptor alpha2beta3gamma2 expressed in Xenopus oocytes assessed as potentiation of GABA induced chloride currents relative to GABA; assay type: cell-based
# [6] = biological target: GABA-A receptor; alpha-3/beta-3/gamma-2 (Homo sapiens) (UniProt P18507+P28472+P34903); assay: Positive allosteric modulation of recombinant human GABAA receptor alpha3beta3gamma2 expressed in Xenopus laevis oocytes assessed as potentiation of GABA induced chloride currents relative to GABA; assay type: cell-based
# [7] = biological target: T2, GABA A receptor alpha-4/beta-3/gamma-2; assay: Positive allosteric modulation of recombinant human GABAA receptor alpha4beta3gamma2 expressed in Xenopus laevis oocytes assessed as potentiation of GABA induced chloride currents relative to GABA; assay type: cell-based
# [8] = biological target: GABA-A receptor; alpha-5/beta-3/gamma-2 (Homo sapiens) (UniProt P18507+P28472+P31644); assay: Positive allosteric modulation of recombinant human GABAA receptor alpha5beta3gamma2 expressed in Xenopus laevis oocytes assessed as potentiation of GABA induced chloride currents relative to GABA; assay type: cell-based
# [9] = biological target: GABA-A receptor; alpha-6/beta-3/gamma-2 (Homo sapiens) (UniProt P18507+P28472+Q16445); assay: Positive allosteric modulation of recombinant human GABAA receptor alpha6beta3gamma2 expressed in Xenopus oocytes assessed as potentiation of GABA induced chloride currents relative to GABA; assay type: cell-based
# [10] = biological target: T4, Glycine receptor subunit alpha-1 (Homo sapiens, UniProt P23415); assay: Positive allosteric modulation of recombinant human glycine receptor alpha1 expressed in HEK293 cells assessed as increase in glycine-induced current at -60 mV holding potential by whole cell patch-clamp method; assay type: cell-based
# T4 sequence (P23415 whole entry): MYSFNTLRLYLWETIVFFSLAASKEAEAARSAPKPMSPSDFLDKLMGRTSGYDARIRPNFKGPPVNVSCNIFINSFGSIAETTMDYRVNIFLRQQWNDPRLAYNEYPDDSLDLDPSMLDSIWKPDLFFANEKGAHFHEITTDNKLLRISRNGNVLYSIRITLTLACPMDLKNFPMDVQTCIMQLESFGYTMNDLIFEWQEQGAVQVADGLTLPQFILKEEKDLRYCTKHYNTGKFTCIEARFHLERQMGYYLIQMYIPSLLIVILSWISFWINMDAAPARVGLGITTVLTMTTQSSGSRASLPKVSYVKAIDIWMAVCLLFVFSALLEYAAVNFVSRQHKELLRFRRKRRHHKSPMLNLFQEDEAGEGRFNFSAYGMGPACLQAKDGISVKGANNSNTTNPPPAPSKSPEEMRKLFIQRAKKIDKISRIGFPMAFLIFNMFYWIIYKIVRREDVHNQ
# [11] = biological target: T5, Glycine receptor subunit alpha-1 (Homo sapiens) (UniProt P23415); assay: Positive allosteric modulation of recombinant human glycine receptor alpha1 expressed in HEK293 cells assessed as potentiation of glycine-induced current at -60 mV holding potential by whole cell patch-clamp method relative to 10 uM glycine; assay type: cell-based
# T5 sequence (whole entry): T4 sequence (P23415 whole entry)
# [12] = biological target: Glycine receptor (alpha-1/beta) (Homo sapiens, UniProt P23415+P48167); assay: Inhibition of recombinant human glycine receptor alpha1beta expressed in HEK293 cells; assay type: cell-based
# [13] = biological target: Glycine receptor subunit alpha-2/beta (Homo sapiens, UniProt P23416+P48167); assay: Inhibition of recombinant human glycine receptor alpha2beta expressed in HEK293 cells; assay type: cell-based
# [14] = biological target: Glycine receptor alpha-3/beta (Homo sapiens, UniProt O75311+P48167); assay: Inhibition of recombinant human glycine receptor alpha3beta expressed in HEK293 cells; assay type: cell-based
# [15] = biological target: Gamma-aminobutyric acid receptor subunit alpha-4/beta-2/delta (Homo sapiens, UniProt O14764+P47870+P48169); assay: Positive allosteric modulation of GABAA receptor alpha4beta2delta (unknown origin); assay type: protein-complex assay
# [16] = biological target: T6, GABA-A receptor; alpha-1/beta-2/gamma-2 (Homo sapiens, UniProt P14867+P18507+P47870); assay: Positive allosteric modulation of GABAA receptor alpha1beta2gamma2 (unknown origin); assay type: protein-complex assay
# [17] = biological target: Gamma-aminobutyric acid receptor subunit alpha-1/beta-3/gamma-2 (Rattus norvegicus, UniProt P18508+P62813+P63079); assay: Displacement of [3H]-flunitrazepam from recombinant rat GABAA receptor alpha1beta3gamma2S expressed in HEK293 cell membranes after 90 mins by liquid scintillation counting method
# [18] = biological target: Gamma-aminobutyric acid receptor subunit alpha-2/beta-3/gamma-2 (Rattus norvegicus, UniProt P18508+P23576+P63079); assay: Displacement of [3H]-flunitrazepam from recombinant rat GABAA receptor alpha2beta3gamma2S expressed in HEK293 cell membranes after 90 mins by liquid scintillation counting method
# [19] = biological target: Gamma-aminobutyric acid receptor subunit alpha-3/beta-3/gamma-2 (Rattus norvegicus, UniProt P18508+P20236+P63079); assay: Displacement of [3H]-flunitrazepam from recombinant rat GABAA receptor alpha3beta3gamma2S expressed in HEK293 cell membranes after 90 mins by liquid scintillation counting method
# [20] = biological target: GABA A receptor alpha-5/beta-3/gamma-2 (Rattus norvegicus, UniProt P18508+P19969+P63079); assay: Displacement of [3H]-flunitrazepam from recombinant rat GABAA receptor alpha5beta3gamma2S expressed in HEK293 cell membranes after 90 mins by liquid scintillation counting method
# [21] = biological target: Gamma-aminobutyric acid receptor subunit alpha-1 (Rattus norvegicus, UniProt P62813); assay: Agonist activity at GABAA receptor in Sprague-Dawley rat forebrain membranes assessed as enhancement of [3H]muscimol binding after 2 hrs by radiometric analysis; design: species or system Membrane
# [22] = biological target: Gamma-aminobutyric acid receptor subunit alpha-1 (Rattus norvegicus) (UniProt P62813); assay: Agonist activity at GABAA receptor in Sprague-Dawley rat forebrain membranes assessed as enhancement of [3H]muscimol binding at 1 to 100 uM after 2 hrs by radiometric analysis relative to control; settings: Membrane
# [23] = Positive allosteric modulation of wild-type C57BL/6J mouse mitral cell GABAA receptor at 9 to 10 mV holding potential by whole cell patch-clamp method
# [24] = biological target: GABA A receptor alpha-3/beta-2/gamma-2 (Homo sapiens, UniProt P18507+P34903+P47870); assay: Positive allosteric modulation of recombinant wild type GABAA receptor alpha3beta2gamma2S (unknown origin) expressed in HEK293 cells assessed as potentiation of GABA induced chloride current response treated every 30 secs measured for 2 to 3 secs by patch clamp method; assay type: cell-based
# [25] = biological target: GABA A receptor alpha-3/beta-2/gamma-2 (Homo sapiens) (UniProt P47870+P18507+P34903); assay: Positive allosteric modulation of recombinant wild type GABAA receptor alpha3beta2gamma2S (unknown origin) expressed in HEK293 cells assessed as potentiation of GABA induced chloride current response relative to 30 uM GABA; assay type: cell-based
# [26] = biological target: T7, GABA A receptor alpha-2/beta-2/gamma-2 (Homo sapiens, UniProt P18507+P47869+P47870); assay: Positive allosteric modulation of recombinant wild type GABAA receptor alpha2beta2gamma2S (unknown origin) expressed in HEK293 cells assessed as potentiation of GABA induced chloride current response treated every 30 secs measured for 2 to 3 secs by patch clamp method; assay type: cell-based
# [27] = biological target: GABA A receptor alpha-2/beta-2/gamma-2 (Homo sapiens) (UniProt P47870+P18507+P47869); assay: Positive allosteric modulation of recombinant wild type GABAA receptor alpha2beta2gamma2S (unknown origin) expressed in HEK293 cells assessed as potentiation of GABA induced chloride current response relative to GABA; assay type: cell-based
# [28] = Positive allosteric modulation of recombinant wild type GABAA receptor alpha4beta2gamma2S (unknown origin) expressed in HEK293 cells assessed as potentiation of GABA induced chloride current response treated every 30 secs measured for 2 to 3 secs by patch clamp method; assay type: cell-based; settings: Homo sapiens
# [29] = test system: HEK293; assay: Positive allosteric modulation of recombinant wild type GABAA receptor alpha4beta2gamma2S (unknown origin) expressed in HEK293 cells assessed as potentiation of GABA induced chloride current response relative to GABA; assay type: cell-based; settings: Homo sapiens
# [30] = biological target: GABA A receptor alpha-1/beta-1/gamma-2 (Homo sapiens, UniProt P14867+P18505+P18507); assay: Agonist activity at recombinant human GABAA receptor alpha1beta1gamma2L expressed in Xenopus laevis oocytes incubated for 30 secs by electrophysiological method; assay type: cell-based
# [31] = biological target: T6, GABA-A receptor; alpha-1/beta-2/gamma-2; assay: Agonist activity at recombinant human GABAA receptor alpha1beta2gamma2L expressed in Xenopus laevis oocytes incubated for 30 secs by electrophysiological method; assay type: cell-based
# [32] = biological target: T7, GABA A receptor alpha-2/beta-2/gamma-2; assay: Agonist activity at recombinant human GABAA receptor alpha2beta2gamma2L expressed in Xenopus laevis oocytes incubated for 30 secs by electrophysiological method; assay type: cell-based
# [33] = biological target: Glycine receptor subunit alpha-3 (Homo sapiens, UniProt O75311); assay: Positive allosteric modulation of recombinant human glycine receptor alpha3 expressed in CHOK1 cells at -60 mV holding potential by whole cell patch-clamp method; assay type: cell-based
# [34] = biological target: Glycine receptor subunit alpha-3 (Homo sapiens) (UniProt O75311); assay: Positive allosteric modulation of recombinant human glycine receptor alpha3 expressed in CHOK1 cells assessed as potentiation of glycine-induced current at 20 uM at -60 mV holding potential by whole cell patch-clamp method relative to glycine; assay type: cell-based
# [35] = biological target: T5, Glycine receptor subunit alpha-1 (Homo sapiens); assay: Positive allosteric modulation of recombinant human glycine receptor alpha1 expressed in CHOK1 cells assessed as potentiation of glycine-induced current at 10 uM at -60 mV holding potential by whole cell patch-clamp method relative to glycine; assay type: cell-based
# [36] = biological target: T1, GABA-A receptor; alpha-1/beta-3/gamma-2 (Homo sapiens); assay: Positive allosteric modulation of recombinant human GABAA receptor alpha1beta3gamma2 expressed in CHOK1 cells assessed as potentiation of GABA-induced current at 10 uM at -60 mV holding potential by whole cell patch-clamp method relative to GABA; assay type: cell-based
# [37] = biological target: T3, GABA-A receptor; alpha-2/beta-3/gamma-2 (Homo sapiens); assay: Positive allosteric modulation of recombinant human GABAA receptor alpha2beta3gamma2 expressed in CHOK1 cells assessed as potentiation of GABA-induced current at 10 uM at -60 mV holding potential by whole cell patch-clamp method relative to GABA; assay type: cell-based
# T7 sequence (P47870 whole entry): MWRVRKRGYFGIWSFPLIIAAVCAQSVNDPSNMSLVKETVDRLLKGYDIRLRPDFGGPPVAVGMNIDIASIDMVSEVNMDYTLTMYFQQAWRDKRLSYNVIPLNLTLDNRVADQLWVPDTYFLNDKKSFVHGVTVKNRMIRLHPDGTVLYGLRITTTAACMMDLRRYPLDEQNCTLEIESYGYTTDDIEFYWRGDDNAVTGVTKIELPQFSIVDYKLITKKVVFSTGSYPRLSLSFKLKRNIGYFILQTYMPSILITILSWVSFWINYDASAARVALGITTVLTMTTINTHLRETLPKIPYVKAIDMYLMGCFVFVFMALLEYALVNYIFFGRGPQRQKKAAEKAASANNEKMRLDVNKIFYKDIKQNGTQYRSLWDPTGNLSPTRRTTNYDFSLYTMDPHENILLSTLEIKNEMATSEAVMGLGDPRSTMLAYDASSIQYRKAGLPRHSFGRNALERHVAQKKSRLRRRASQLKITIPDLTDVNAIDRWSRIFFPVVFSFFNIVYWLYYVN
# T7 sequence (P18507 whole entry): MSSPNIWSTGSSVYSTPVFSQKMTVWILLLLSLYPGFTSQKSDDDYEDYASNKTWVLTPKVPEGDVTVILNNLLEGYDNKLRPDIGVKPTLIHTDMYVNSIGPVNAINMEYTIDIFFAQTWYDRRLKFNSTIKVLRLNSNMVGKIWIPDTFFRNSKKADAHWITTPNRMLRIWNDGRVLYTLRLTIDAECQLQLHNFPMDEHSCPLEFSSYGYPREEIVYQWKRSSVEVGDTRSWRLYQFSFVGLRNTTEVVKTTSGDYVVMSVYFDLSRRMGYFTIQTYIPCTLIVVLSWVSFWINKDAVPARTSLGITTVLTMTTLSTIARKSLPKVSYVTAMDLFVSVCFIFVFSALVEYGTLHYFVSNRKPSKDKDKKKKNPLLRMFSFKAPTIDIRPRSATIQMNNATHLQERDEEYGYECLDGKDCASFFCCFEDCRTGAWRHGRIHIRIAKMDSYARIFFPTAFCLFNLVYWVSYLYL
# T7 sequence (P47869 whole entry): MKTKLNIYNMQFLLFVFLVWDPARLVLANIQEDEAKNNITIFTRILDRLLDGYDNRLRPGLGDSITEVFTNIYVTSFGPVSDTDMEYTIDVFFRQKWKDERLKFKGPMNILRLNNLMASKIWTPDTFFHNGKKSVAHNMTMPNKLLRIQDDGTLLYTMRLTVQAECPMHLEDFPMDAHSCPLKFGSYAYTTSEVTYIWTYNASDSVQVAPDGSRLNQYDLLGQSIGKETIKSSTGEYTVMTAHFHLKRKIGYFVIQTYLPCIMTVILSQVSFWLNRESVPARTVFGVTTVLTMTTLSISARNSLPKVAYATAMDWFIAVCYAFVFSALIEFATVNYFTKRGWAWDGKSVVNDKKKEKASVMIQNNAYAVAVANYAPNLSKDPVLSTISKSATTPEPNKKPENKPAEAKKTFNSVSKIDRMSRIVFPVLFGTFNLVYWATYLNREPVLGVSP
# T6 sequence (P14867 whole entry): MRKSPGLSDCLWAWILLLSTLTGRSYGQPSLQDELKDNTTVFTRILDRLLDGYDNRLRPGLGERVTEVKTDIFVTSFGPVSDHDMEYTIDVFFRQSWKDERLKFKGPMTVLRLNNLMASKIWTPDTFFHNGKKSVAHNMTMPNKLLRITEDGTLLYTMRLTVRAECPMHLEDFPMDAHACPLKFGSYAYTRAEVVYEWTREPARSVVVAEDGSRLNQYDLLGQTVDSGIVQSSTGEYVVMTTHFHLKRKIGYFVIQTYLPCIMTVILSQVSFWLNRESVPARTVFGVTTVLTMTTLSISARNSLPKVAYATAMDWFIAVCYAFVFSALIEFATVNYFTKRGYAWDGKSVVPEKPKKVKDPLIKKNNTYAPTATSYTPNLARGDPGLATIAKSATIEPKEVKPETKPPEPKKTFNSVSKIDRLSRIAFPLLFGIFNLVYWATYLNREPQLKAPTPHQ
# T6 sequence (P47870 whole entry): as the sequence (P47870 whole entry) above
# T6 sequence (P18507 whole entry): as the sequence (P18507 whole entry) above
# GABA-A receptor; alpha-2/beta-3/gamma-2, sequence (P18507 whole entry): as above
# GABA-A receptor; alpha-2/beta-3/gamma-2, sequence (P28472 whole entry): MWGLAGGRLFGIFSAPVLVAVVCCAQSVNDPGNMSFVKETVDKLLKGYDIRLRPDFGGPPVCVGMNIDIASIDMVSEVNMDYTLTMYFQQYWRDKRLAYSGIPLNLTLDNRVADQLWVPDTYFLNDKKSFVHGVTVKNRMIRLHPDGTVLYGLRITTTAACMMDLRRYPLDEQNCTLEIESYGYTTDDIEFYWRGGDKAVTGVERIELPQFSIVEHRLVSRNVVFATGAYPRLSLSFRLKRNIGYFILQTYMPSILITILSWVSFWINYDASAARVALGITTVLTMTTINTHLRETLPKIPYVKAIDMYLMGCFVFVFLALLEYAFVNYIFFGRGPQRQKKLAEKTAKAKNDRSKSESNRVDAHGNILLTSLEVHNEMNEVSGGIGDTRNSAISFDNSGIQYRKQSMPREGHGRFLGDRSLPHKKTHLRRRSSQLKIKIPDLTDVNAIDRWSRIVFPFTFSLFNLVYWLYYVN
# GABA-A receptor; alpha-2/beta-3/gamma-2, sequence (P47869 whole entry): as the sequence (P47869 whole entry) above
# T2 sequence (P18507 whole entry): as the sequence (P18507 whole entry) above
# T2 sequence (P28472 whole entry): as the sequence (P28472 whole entry) above
# T2 sequence (P48169 whole entry): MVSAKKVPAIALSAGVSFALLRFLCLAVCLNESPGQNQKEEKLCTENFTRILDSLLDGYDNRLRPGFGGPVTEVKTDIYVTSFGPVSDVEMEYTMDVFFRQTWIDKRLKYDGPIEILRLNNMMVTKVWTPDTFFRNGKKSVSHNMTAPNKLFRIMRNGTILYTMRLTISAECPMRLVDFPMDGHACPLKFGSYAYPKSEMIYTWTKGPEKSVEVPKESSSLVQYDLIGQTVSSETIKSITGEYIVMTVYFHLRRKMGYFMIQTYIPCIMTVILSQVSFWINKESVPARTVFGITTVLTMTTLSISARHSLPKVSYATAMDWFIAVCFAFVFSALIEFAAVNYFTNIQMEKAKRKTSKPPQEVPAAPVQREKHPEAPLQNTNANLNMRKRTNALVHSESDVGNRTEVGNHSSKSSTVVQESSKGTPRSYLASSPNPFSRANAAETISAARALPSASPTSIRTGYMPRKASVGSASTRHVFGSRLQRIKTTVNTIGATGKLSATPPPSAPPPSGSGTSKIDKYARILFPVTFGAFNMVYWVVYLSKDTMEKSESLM
# GABA-A receptor; alpha-5/beta-3/gamma-2, sequence (P18507 whole entry): as the sequence (P18507 whole entry) above
# GABA-A receptor; alpha-5/beta-3/gamma-2, sequence (P28472 whole entry): as the sequence (P28472 whole entry) above
# GABA-A receptor; alpha-5/beta-3/gamma-2, sequence (P31644 whole entry): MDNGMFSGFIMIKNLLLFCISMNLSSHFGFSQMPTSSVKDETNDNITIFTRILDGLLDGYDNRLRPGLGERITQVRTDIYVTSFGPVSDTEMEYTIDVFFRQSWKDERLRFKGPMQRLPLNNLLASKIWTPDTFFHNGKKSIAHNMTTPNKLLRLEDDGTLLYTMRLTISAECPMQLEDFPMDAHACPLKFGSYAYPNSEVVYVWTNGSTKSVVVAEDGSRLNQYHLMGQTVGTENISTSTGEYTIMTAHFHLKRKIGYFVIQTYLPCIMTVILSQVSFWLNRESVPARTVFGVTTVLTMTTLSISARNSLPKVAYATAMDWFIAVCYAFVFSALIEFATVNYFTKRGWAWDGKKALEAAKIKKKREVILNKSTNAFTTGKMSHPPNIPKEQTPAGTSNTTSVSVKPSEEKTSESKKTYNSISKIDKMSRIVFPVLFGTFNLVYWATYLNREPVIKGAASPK
# Gamma-aminobutyric acid receptor subunit alpha-1, sequence (P62813 whole entry): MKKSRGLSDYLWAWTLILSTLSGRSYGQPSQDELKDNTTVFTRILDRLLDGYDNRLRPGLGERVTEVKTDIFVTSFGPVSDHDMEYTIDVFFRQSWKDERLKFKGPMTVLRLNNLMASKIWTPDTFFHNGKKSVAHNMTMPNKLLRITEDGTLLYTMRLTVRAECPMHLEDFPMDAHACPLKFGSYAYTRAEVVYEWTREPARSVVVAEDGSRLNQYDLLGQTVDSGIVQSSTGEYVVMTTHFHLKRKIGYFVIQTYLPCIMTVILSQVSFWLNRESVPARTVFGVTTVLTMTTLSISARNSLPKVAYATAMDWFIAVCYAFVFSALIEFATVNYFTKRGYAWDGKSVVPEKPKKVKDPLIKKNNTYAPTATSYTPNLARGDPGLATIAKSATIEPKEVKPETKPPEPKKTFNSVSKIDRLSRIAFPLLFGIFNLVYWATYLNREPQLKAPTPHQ
# Gamma-aminobutyric acid receptor subunit alpha-1 (Rattus norvegicus), sequence (P62813 whole entry): as above
# Glycine receptor (alpha-1/beta), sequence (P48167 whole entry, one chain of several): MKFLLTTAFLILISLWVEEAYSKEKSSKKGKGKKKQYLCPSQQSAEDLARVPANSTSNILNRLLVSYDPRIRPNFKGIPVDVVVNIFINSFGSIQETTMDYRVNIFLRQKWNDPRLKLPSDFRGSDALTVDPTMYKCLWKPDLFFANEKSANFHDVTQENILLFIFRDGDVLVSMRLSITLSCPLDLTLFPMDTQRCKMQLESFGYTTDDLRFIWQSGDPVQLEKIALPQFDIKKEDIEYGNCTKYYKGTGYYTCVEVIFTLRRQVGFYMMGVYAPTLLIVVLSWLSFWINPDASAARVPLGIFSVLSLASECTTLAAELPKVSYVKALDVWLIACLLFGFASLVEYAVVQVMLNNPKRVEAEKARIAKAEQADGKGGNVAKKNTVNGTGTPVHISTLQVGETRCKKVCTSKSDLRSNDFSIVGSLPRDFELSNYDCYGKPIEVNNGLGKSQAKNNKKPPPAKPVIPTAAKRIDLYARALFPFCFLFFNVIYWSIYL
structure (smiles),measurement,setting,value
COc1ccc(-n2nc3c4cc(Cl)ccc4[nH]cc-3c2=O)cc1,fold change (FC),[1],10
same,pKi,[2],< 5.00
same,pKi,[3],< 5.00
same,pKi,[4],9.52
same,fold change (FC),[5],8
same,fold change (FC),[6],5
same,fold change (FC),[7],2
same,fold change (FC),[8],2
same,fold change (FC),[9],20
C=C[C@]12CN(C)[C@@H]3[C@H]4CO[C@H](C[C@H]41)[C@]1(C(=O)Nc4ccccc41)[C@@H]32 [GELSEMINE],pEC50,[10],6.23
same,fold change (FC),[11],0.55
same,pIC50,[12],4.30 to 4.52
same,pIC50,[13],4.30 to 4.52
same,pIC50,[14],4.30 to 4.52
C[C@@]1(O)CC[C@H]2[C@H](CC[C@@H]3[C@@H]2CC[C@]2(C)[C@@H](C(=O)Cn4cc(C#N)cn4)CC[C@@H]32)C1 [ZURANOLONE],pEC50,[15],6.79
same,pEC50,[16],6.43
C#Cc1ccc2c(c1)C(c1ccccc1F)=N[C@H](C)c1c(C(=O)NC)ncn1-2,pKi,[17],6.07
same,pKi,[18],6.44
same,pKi,[19],6.18
same,pKi,[20],7.26
CCCCNC(=O)c1cc(-c2ccc(F)cc2F)ccc1O,pEC50,[21],4.82
same,Emax,[22],56%
CC1CC(=O)C=C(Nc2ccc(OC(F)(F)F)cc2)C1 (configuration not stated),pEC50,[23],4.61
COc1ccc(C(=O)/C=C/c2cc(OC)ccc2O)cc1,pEC50,[24],4.75
same,fold change (FC),[25],19.6
same,pEC50,[26],5.12
same,fold change (FC),[27],13.6
same,pEC50,[28],5.09
same,fold change (FC),[29],6.2
Oc1c(Br)cc(Br)cc1-c1cc(Br)cc(Br)c1O [BROMOPHENE],pEC50,[30],6.49
same,pEC50,[31],6.14
same,pEC50,[32],5.97
O=S(=O)(NCCOc1cccc2cccnc12)c1ccc(F)cc1,pEC50,[33],5.41
same,fold change (FC),[34],28
same,fold change (FC),[35],39.7
same,fold change (FC),[36],0
same,fold change (FC),[37],0
